Among the data in BindingDB's records for patent US8575203 (Boehringer Ingelheim International, 2013) are IC50 values, retold here.

This assay concerns the target T1, 3-phosphoinositide-dependent protein kinase 1 (Homo sapiens, UniProt O15530).
T1 sequence (O15530 whole entry): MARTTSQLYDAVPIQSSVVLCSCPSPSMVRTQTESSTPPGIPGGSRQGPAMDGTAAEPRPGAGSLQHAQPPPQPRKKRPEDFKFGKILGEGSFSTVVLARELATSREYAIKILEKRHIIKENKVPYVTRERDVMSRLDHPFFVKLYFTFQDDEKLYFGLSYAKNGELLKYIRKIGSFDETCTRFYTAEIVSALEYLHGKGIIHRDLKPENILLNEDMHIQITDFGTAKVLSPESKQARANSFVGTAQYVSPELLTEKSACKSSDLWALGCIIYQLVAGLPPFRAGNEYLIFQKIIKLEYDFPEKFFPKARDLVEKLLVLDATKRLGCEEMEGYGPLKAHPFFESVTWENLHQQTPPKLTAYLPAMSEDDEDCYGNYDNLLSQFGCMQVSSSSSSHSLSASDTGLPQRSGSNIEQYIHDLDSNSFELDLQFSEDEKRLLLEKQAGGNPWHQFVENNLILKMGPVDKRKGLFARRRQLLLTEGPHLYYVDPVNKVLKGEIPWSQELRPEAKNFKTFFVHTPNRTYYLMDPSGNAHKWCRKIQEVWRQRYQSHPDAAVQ
The experiment in a line: Kinase Assay. As to the method:
The activity of the compounds according to the invention on the kinase PDK1 which inhibits the signal transduction pathway is determined in an in vitro kinase assay with recombinantly prepared protein.

As a reminder, the IC50 is the midpoint of a concentration-inhibition curve. Low readings indicate higher potency, high ones lower potency. With `CN(C)C(=O)c1cnc2ccc(C#CCNC(=O)c3cncn(Cc4ccc(F)c(F)c4)c3=O)cc2n1` [US8575203, II-70], inhibition was half-maximal at 185 nM (IC50).
